Source: US9284333B2, “Fused pyrroledicarboxamides and their use as pharmaceuticals” (SANOFI, priority 2012, dated 2016)

Molecular target: Human TASK-1 channels (Homo sapiens (Human), UniProt O14649)
Assay: Determination of the activity on the TASK-1 channel in Xenopus oocytes (two-microelectrode voltage clamp)
Format: cell-based
Details: for IC50: human TASK-1 expressed in Xenopus oocytes, room temperature, read-out: IC50 value for TASK-1 inhibition
Method in brief: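 Xenopus oocytes were injected with human TASK-1 cRNA and recorded two days later by two-microelectrode voltage clamp, holding at −90 mV with 500 ms steps to 40 mV. Superfusion used ND96, pH 7.4, at room temperature, with rising compound concentrations; percentage inhibition of control current was fitted to a dose-response curve for IC50.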

Human TASK-1 channels, sequence (O14649 whole entry): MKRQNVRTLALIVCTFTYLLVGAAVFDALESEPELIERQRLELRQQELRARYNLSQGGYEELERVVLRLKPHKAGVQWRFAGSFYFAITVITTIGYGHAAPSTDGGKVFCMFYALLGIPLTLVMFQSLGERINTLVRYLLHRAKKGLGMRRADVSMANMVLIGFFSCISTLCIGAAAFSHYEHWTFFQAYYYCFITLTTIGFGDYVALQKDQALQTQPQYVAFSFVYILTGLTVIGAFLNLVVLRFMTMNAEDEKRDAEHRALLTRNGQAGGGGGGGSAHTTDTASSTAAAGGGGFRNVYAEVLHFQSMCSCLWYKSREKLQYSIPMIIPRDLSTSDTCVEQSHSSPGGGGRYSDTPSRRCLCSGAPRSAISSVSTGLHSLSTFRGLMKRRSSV

| Compound | IC50 | inhibition at 5 µM (compound concentration 5 μM) |
| --- | --- | --- |
| CC[C@@H](NC(=O)c1cc(C(=O)NCc2cnccn2)n2c1C(C)OCC2)c1ccccc1 (stereo partly drawn) [16li, 1-Methyl-3,4-dihydro-1H-pyrrolo[2,1-c][1,4]oxazine-6,8-dicarboxylic acid 8-[((R)-1-phenyl-propyl)-amide] 6-[(pyrazin-2-ylmethyl)-amide]] | 900 nM | – |
| CC(C)[C@@H](NC(=O)c1cc(C(=O)N2CCC[C@@H]2C)c2n1CCOC2)c1ccc(F)cc1 [16lj, 8-((S)-2-Methyl-pyrrolidine-1-carbonyl)-3,4-dihydro-1H-pyrrolo[2,1-c][1,4]oxazine-6-carboxylic acid [(R)-1-(4-fluoro-phenyl)-2-methyl-propyl]-amide] | 200 nM | – |
| CC(NC(=O)c1cc(C(=O)N[C@@H](c2ccc(F)cc2)C(C)C)n2c1COCC2)c1ccno1 (stereo partly drawn) [16lk, 3,4-Dihydro-1H-pyrrolo[2,1-c][1,4]oxazine-6,8-dicarboxylic acid 6-{[(R)-1-(4-fluoro-phenyl)-2-methyl-propyl]-amide} 8-[(1-isoxazol-5-yl-ethyl)-amide]] | 310 nM | – |
| CC(C)[C@@H](NC(=O)c1cc(C(=O)NCc2ncco2)c2n1CCOC2)c1ccc(F)cc1 [16ll, 3,4-Dihydro-1H-pyrrolo[2,1-c][1,4]oxazine-6,8-dicarboxylic acid 6-{[(R)-1-(4-fluoro-phenyl)-2-methyl-propyl]-amide} 8-[(oxazol-2-ylmethyl)-amide]] | – | 86% |
| CC(C)[C@@H](NC(=O)c1cc(C(=O)N2CCCC2)c2n1CCOC2)c1ccc(F)cc1 [16lm, 8-(Pyrrolidine-1-carbonyl)-3,4-dihydro-1H-pyrrolo[2,1-c][1,4]oxazine-6-carboxylic acid [(R)-1-(4-fluoro-phenyl)-2-methyl-propyl]-amide] | 270 nM | – |
| COC(=O)[C@H]1CCCN1C(=O)c1cc(C(=O)N[C@@H](c2ccc(F)cc2)C(C)C)n2c1COCC2 [16ln, (R)-1-{6-[(R)-1-(4-Fluoro-phenyl)-2-methyl-propylcarbamoyl]-3,4-dihydro-1H-pyrrolo[2,1-c][1,4]oxazine-8-carbonyl}-pyrrolidine-2-carboxylic acid methyl ester] | 140 nM | – |
| CC(C)[C@@H](NC(=O)c1cc(C(=O)NCc2cnccn2)c2n1CCOC2)c1ccc(F)cc1 [16lo, 3,4-Dihydro-1H-pyrrolo[2,1-c][1,4]oxazine-6,8-dicarboxylic acid 6-{[(R)-1-(4-fluoro-phenyl)-2-methyl-propyl]-amide} 8-[(pyrazin-2-ylmethyl)-amide]] | 420 nM | – |
| CC[C@@H](NC(=O)c1cc(C(=O)N[C@@H](C)c2ccc(F)cc2)n2c1CCCC2)c1ccccc1 [16lt, 5,6,7,8-Tetrahydro-indolizine-1,3-dicarboxylic acid 3-{[(S)-1-(4-fluoro-phenyl)-ethyl]-amide} 1-[((R)-1-phenyl-propyl)-amide]] | 58 nM | – |
| CC(NC(=O)c1cc(C(=O)N[C@H](C)c2ccc(F)cc2)n2c1CCCC2)c1ncccn1 (stereo partly drawn) [16lu, 5,6,7,8-Tetrahydro-indolizine-1,3-dicarboxylic acid 3-{[(R)-1-(4-fluoro-phenyl)-ethyl]-amide} 1-[(1-pyrimidin-2-yl-ethyl)-amide]] | 450 nM | – |
| CC[C@@H](NC(=O)c1cc(C(=O)N2CCC[C@@H]2C)n2c1CCCC2)c1ccc(C#N)nc1 [16lv, 3-((S)-2-Methyl-pyrrolidine-1-carbonyl)-5,6,7,8-tetrahydro-indolizine-1-carboxylic acid [(R)-1-(6-cyano-pyridin-3-yl)-propyl]-amide] | 2100 nM | – |
| CC[C@@H](NC(=O)c1cc(C(=O)N2CCC[C@@H]2C)n2c1CCCC2)c1ccc(C(F)(F)F)nc1 [16lw, 3-((S)-2-Methyl-pyrrolidine-1-carbonyl)-5,6,7,8-tetrahydro-indolizine-1-carboxylic acid [(R)-1-(6-trifluoromethyl-pyridin-3-yl)-propyl]-amide] | 600 nM | – |
| CC[C@@H](NC(=O)c1cc(C(=O)N2CCC[C@@H]2C)n2c1CCCC2)c1ccc(C#N)cc1 [16lx, 3-((S)-2-Methyl-pyrrolidine-1-carbonyl)-5,6,7,8-tetrahydro-indolizine-1-carboxylic acid [(R)-1-(4-cyano-phenyl)-propyl]-amide] | 200 nM | – |
